Several values for one entry are separate records, joined by “and”; a condition that tells them apart may be missing. Equal entries are not always repeated. Where two headings read alike, the source gives them in different places.
Columns and labels:
[1] = Acute toxicity, rotorod test in mice; assay type: in vivo; details: mouse, in vivo, ip, mice, i.p., suspension, read-out: TD50, ability of mice to stay on the rotorod
Method: (§1) Abnormal neurological status in mice following SKA-19 administration was evaluated with the rotorod test. When a normal mouse is placed on a rod 1 inch in diameter that rotates at a speed of 6 rpm, the mouse can maintain equilibrium for a long time. Inability of the mouse to stay on the rotating rod in three trials for 1 min is taken as an indication of motor impairment. […] Mice were placed on a horizontally oriented grid (consisting of parallel 1.5-mm diameter rods situated 1 cm apart), and the grid was inverted. Animals that fell from the grid within 10 s were scored as impaired.

[2] = tested on: mice; assay: Acute toxicity, rotorod test in mice; assay type: in vivo
Method: as §1

[3] = Acute toxicity, neurological status of rats (positional sense, muscle tone, gait and stance); assay type: in vivo; details: Sprague-Dawley, rat, in vivo, rats
Method: (§2) Abnormal neurological status in rats was evaluated by the positional sense test, the muscle tone test, and the gait and stance test. Inability of the rat to perform normally in at least two of these tests is taken as an indication of some neurological deficit.

[4] = tested on: rats; assay: as above; assay type: in vivo
Method: as §2

[5] = tested on: Metrazol seizure threshold; assay: Infusion of Metrazol (i.v. Met) seizure threshold test; assay type: in vivo, mice
Method: The i.v. Met test provides a measure of a test substance's ability to raise or lower seizure threshold. Two doses of the test compound are usually employed in this test, the MES ED50 and the TD50 determined following i.p. quantification testing in mice. SKA-19 was accordingly tested at 5 and 30 mg/kg. Randomly selected mice (n=30) were injected i.p. 2 minutes apart with either the vehicle or the two test drug doses. At the previously determined TPE, 0.5% heparinized Metrazol solution was infused at a constant rate of 0.34 ml/min into a lateral tail vein. The time in seconds from the start of the infusion to the appearance of the “first twitch” and the onset of sustained clonus is recorded. The times to each endpoint are converted to mg/kg of Metrazol for each mouse as follows: mg/kg Met=Infusion time (T)×Rate of infusion (ml/min)×mg Met/ml×1000 g/60 sec×Weight (W) of animal in g=T×0.34×5×1000=28.33×T=mg/kg of Metrazol 60×W W. The mean and S.E. for each of the 3 groups and the significance of the difference between the test groups and the control are calculated.

[6] = target: KCa2.2 (SK2) (Rattus norvegicus, UniProt P70604); assay: Whole-cell patch-clamp, KCa2.2; assay type: cell-based, human; details: 250 nM free intracellular Ca2+
Method: HEK-293 or COS-7 cells stably expressing hKCa2.1, rKCa2.2, and hKCa2.3 have been described previously (Sankaranarayanan et al., 2009). Cells were held at −80 mV and KCa currents elicited by dialysis with a K^+ aspartate based internal containing 250 nM free Ca^2+ (pH 7.2, 290 mOsm, pipette resistance 1.5 MΩ). To reduce currents from native chloride channels, Na^+ aspartate Ringer was used as an external solution. KCa2 currents were recorded with 200-ms voltage ramps from −120 to +40 mV applied every 10 s, and the fold increase of slope conductance at −80 mV by drug was taken as a measure of channel activation. Data analysis, fitting, and plotting were performed with IGOR-Pro (Wavemetrics, Lake Oswego, Oreg., USA) and Origin 9.0 (OriginLab, Northampton, Mass., USA).

[7] = target: Nav1.1 (Homo sapiens (Human), UniProt P35498); assay: Voltage-clamp, Nav1.1 in HEK-293 cells; assay type: cell-based; details: holding potential -90 mV, 0.1 Hz; read-out: EC50 or IC50, Nav1.1
Method: (§3) All experiments were conducted at room temperature (22-24° C.) with an EPC-10 amplifier and Pulse software (HEKA, Lambrecht/Pfalz, Germany) in the whole-cell mode of the patch-clamp technique. Human embryonic kidney (HEK)-293 cell lines stably expressing hNav1.1, hNav1.5, hNav1.7 channels (generously provided by Dr. Christopher Lossin, University of California Davis), hNav1.4 (Frank Lehmann-Horn, University of Ulm), or hKv2.1 channels (James Trimmer, University of California Davis) were bathed in extracellular solution containing (in mM): 160 NaCl; 4.5 KCl; 1 MgCl2; 2 CaCl2; 10 HEPES [pH was adjusted to 7.4 using NaOH (310 mOsm)]. Pipettes were filled with intracellular solution containing (in mM): 145 KF; 2 MgCl2; 10 ethylene glycol tetraacetic acid; 10 HEPES (pH adjusted to 7.2 with KOH; 300 mOsm). Neuroblastoma N1E-115 cells (ATCC, Manassa, Va., USA) expressing Nav1.2 were patched with a CsF internal solution consisting of (in mM): 10 NaF; 110 CsF; 20 CsCl; 2 ethylene glycol tetraacetic acid; 10 HEPES (CsOH to pH 7.35; 300 mOsm). All pipette tip resistances were 2-4 MΩ. Series resistances of 3-10 MΩ were compensated 40-80%. All cells were voltage-clamped to a holding potential of −90 mV unless otherwise specified. The sampling frequency was 5 kHz. Na^+ currents were elicited by 30-ms pulse to 0 mV from −90 mV applied every 10 s. […]

[8] = target: Nav1.2 (Mus musculus (Mouse), UniProt B1AWN6); assay: Voltage-clamp, Nav1.2 currents in N1E-115 neuroblastoma cells; assay type: cell-based
Sequence of Nav1.2 (B1AWN6 whole entry): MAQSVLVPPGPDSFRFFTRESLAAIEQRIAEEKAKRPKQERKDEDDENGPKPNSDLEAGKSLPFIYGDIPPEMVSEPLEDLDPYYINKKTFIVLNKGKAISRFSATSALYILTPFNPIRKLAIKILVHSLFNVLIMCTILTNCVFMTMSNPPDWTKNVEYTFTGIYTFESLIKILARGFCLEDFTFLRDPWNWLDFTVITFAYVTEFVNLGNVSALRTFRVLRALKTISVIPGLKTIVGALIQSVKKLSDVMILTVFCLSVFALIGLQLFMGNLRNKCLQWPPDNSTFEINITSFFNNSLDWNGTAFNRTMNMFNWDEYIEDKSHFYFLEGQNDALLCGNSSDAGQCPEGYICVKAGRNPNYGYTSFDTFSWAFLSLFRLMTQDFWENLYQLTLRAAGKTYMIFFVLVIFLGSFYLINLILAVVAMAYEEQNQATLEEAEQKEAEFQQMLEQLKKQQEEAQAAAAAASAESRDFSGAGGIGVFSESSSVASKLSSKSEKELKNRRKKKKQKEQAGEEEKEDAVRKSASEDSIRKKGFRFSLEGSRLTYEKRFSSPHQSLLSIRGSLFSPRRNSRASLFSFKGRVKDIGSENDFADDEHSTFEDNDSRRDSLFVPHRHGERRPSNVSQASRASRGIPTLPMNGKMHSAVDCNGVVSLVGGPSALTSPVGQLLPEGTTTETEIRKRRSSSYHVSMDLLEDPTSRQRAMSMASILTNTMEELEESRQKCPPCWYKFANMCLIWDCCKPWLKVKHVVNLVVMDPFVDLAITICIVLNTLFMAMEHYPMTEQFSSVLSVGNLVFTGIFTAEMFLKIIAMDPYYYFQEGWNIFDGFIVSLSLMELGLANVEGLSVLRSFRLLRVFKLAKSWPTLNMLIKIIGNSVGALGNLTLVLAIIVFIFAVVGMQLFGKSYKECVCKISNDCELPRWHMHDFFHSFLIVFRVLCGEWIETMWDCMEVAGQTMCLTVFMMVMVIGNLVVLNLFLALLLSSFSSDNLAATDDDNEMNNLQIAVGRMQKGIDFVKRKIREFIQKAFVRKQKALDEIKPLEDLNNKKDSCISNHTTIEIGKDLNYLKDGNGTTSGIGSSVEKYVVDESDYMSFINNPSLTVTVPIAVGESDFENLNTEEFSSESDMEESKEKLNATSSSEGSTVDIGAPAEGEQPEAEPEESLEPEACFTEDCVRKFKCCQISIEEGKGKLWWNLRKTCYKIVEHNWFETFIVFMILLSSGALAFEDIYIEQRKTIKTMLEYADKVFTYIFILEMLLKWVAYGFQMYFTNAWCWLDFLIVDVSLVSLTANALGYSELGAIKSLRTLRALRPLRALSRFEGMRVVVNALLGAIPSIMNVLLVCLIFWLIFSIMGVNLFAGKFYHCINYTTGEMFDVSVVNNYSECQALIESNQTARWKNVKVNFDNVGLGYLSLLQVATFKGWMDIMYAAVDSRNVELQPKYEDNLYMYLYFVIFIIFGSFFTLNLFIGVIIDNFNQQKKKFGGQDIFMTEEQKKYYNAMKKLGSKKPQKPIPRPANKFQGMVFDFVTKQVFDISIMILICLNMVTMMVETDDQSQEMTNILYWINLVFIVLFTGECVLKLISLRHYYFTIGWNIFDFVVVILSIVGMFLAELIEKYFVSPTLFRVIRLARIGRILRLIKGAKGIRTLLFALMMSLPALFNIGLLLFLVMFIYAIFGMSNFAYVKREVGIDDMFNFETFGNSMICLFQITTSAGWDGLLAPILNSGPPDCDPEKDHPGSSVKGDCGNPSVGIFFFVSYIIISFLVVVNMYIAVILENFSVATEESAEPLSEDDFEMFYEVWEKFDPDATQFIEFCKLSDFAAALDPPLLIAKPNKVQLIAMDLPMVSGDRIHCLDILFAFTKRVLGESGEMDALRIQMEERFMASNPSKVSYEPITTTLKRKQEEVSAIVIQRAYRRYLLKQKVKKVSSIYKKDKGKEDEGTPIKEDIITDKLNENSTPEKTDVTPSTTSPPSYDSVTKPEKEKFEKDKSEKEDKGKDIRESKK
Method: All experiments were conducted at room temperature (22-24° C.) with an EPC-10 amplifier and Pulse software (HEKA, Lambrecht/Pfalz, Germany) in the whole-cell mode of the patch-clamp technique. Human embryonic kidney (HEK)-293 cell lines stably expressing hNav1.1, hNav1.5, hNav1.7 channels (generously provided by Dr. Christopher Lossin, University of California Davis), hNav1.4 (Frank Lehmann-Horn, University of Ulm), or hKv2.1 channels (James Trimmer, University of California Davis) were bathed in extracellular solution containing (in mM): 160 NaCl; 4.5 KCl; 1 MgCl2; 2 CaCl2; 10 HEPES [pH was adjusted to 7.4 using NaOH (310 mOsm)]. Pipettes were filled with intracellular solution containing (in mM): 145 KF; 2 MgCl2; 10 ethylene glycol tetraacetic acid; 10 HEPES (pH adjusted to 7.2 with KOH; 300 mOsm). Neuroblastoma N1E-115 cells (ATCC, Manassa, Va., USA) expressing Nav1.2 were patched with a CsF internal solution consisting of (in mM): 10 NaF; 110 CsF; 20 CsCl; 2 ethylene glycol tetraacetic acid; 10 HEPES (CsOH to pH 7.35; 300 mOsm). All pipette tip resistances were 2-4 MΩ. Series resistances of 3-10 MΩ were compensated 40-80%. All cells were voltage-clamped to a holding potential of −90 mV unless otherwise specified. The sampling frequency was 5 kHz. Na^+ currents were elicited by 30-ms pulse to 0 mV from −90 mV applied every 10 s. Kv2.1 currents were elicited by 200-ms voltage steps from −90 to 40 mV applied every 10 s.

[9] = target: Nav1.3 (Homo sapiens (Human), UniProt Q9NY46); assay: Voltage-clamp, Nav1.3; assay type: cell-based; details: read-out: EC50 or IC50, Nav1.3
Sequence of Nav1.3 (Q9NY46 whole entry): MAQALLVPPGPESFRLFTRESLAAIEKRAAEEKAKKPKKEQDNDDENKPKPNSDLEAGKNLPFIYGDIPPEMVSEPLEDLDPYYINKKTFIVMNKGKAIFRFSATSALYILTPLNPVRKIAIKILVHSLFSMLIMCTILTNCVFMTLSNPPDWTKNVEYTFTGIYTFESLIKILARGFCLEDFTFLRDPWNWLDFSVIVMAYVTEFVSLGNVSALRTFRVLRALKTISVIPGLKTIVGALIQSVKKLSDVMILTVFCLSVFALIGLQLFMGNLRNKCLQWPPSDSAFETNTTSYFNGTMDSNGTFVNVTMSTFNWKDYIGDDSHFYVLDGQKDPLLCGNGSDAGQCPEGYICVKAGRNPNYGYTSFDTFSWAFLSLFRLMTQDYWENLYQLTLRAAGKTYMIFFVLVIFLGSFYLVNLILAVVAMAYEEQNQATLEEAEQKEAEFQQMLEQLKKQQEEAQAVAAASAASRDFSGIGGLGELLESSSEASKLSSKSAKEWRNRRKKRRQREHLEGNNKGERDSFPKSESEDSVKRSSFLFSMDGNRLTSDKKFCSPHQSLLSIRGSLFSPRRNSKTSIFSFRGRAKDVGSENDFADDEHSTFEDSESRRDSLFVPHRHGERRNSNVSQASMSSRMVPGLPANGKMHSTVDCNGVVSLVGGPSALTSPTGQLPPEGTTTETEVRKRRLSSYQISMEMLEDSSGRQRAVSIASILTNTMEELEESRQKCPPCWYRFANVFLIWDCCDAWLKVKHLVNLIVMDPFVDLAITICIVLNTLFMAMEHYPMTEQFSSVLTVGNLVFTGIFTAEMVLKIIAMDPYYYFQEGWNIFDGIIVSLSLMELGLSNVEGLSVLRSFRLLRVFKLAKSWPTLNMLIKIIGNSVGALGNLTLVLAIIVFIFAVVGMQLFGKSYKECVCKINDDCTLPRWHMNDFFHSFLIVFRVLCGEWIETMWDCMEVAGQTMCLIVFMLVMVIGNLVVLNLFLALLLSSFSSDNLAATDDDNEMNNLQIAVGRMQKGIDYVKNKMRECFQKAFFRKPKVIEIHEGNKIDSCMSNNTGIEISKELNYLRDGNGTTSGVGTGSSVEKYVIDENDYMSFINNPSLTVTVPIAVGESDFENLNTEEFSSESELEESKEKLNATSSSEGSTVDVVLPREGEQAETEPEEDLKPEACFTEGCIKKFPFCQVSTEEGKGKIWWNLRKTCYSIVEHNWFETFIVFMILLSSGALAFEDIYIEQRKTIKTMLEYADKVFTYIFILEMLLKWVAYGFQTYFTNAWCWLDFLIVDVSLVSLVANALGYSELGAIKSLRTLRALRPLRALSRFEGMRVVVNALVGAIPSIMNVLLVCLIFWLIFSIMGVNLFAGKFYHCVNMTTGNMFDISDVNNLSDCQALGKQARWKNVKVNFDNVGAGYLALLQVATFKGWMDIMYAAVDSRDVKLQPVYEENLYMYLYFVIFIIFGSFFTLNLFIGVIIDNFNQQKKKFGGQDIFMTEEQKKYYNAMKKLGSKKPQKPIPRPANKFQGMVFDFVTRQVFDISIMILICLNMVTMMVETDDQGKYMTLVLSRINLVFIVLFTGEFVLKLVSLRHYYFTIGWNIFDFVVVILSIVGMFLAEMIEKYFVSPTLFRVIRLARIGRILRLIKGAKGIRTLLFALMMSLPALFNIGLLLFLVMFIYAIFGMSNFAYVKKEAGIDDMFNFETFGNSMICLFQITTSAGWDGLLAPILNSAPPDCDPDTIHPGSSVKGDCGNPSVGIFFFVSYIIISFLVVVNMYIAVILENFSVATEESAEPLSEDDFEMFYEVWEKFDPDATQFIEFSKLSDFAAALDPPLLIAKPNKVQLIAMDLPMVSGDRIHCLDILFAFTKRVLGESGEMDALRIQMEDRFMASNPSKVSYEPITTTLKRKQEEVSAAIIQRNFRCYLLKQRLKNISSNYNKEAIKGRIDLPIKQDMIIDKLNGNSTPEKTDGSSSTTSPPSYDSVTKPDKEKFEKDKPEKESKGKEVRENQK

[10] = target: Kv2.1 (Homo sapiens (Human), UniProt Q14721); assay: Voltage-clamp, Kv2.1 in HEK-293 cells; assay type: cell-based; details: read-out: EC50 or IC50, Kv2.1
Sequence of Kv2.1 (Q14721 whole entry): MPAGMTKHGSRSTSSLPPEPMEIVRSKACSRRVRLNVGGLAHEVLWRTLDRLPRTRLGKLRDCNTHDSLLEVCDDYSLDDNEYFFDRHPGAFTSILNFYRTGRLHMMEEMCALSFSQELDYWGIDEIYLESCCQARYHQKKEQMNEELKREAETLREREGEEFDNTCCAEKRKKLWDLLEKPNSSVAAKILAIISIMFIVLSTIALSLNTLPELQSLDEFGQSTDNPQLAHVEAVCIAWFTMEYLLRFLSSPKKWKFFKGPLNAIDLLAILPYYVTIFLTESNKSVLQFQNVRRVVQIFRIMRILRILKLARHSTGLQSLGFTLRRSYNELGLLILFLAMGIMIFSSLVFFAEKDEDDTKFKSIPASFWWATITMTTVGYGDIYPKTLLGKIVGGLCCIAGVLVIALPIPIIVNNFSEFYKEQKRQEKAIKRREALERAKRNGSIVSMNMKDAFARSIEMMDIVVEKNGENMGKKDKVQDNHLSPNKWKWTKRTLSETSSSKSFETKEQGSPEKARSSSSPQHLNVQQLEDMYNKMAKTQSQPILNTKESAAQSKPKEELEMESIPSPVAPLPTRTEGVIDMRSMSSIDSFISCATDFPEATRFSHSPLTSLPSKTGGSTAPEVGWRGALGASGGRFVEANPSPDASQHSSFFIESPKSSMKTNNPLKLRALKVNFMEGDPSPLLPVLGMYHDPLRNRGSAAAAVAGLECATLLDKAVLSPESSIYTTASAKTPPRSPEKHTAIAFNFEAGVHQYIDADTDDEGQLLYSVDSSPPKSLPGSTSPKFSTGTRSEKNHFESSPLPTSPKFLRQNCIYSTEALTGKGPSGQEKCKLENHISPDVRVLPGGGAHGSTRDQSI
Method: as §3

## Nc1nc2ccc(SC(F)(F)F)cc2s1 [SKA-19, 6-((trifluoromethyl)thio)benzo[d]thiazol-2-amine]
[1]; CF No. 1 (Carworth Farms)
  TD50: 29.8 mg/kg
[1]; albino CF No. 1 (Carworth Farms)
  TD50 at 2 h: 29.8 mg/kg
[1]
  TD50: 29.7 mg/kg
[2]; 100 mg/kg
  neurological deficit, rotorod: inability to clasp the rotorod
[2]; 100 mg/kg i.p.
  mice that died: two out of 8
[2]; 300 mg/kg
  neurological deficit / lethality: sedation or death
[2]; 0.5 and 4 hours after 3, 10 and 30 mg/kg
  ability of mice to stay on the rotorod: no impairment
[3]; ip
  TD50: 14.3 mg/kg
  TD50 at 1 h: 14.3 mg/kg
[3]; oral
  TD50 at 4 h: 77.4 mg/kg
[4]; rat, in vivo
  deaths: No deaths
[4]; rats, oral 30 mg/kg, 0.25-4 h
  neurotoxicity: without inducing neurotoxicity
[5]; 5 mg/kg i.p.
  time or metrazole dose to the first twitch or clonus: did not change
[5]; 5 and 30 mg/kg i.p.
  proconvulsant action: not proconvulsant
[5]; SKA-19 30 mg/kg i.p.
  Metrazole dose to first clonus: 37.2 ± 1.25 mg/kg
  Metrazole dose to first twitch: 31.6 ± 1.0 mg/kg
[6]; read-out: EC50 or IC50, KCa2.2
  EC50: 14 µM
[6]; stated for KCa2 currents
  maximal increase of KCa2 currents: 30 fold
[7]
  IC50: 6.9 ± 4.9 µM
[8]; 20 Hz, read-out: IC50, Nav1.2
  IC50: 0.52 ± 0.23 µM
[8]; -70 mV holding potential, read-out: IC50, Nav1.2
  IC50: 0.86 ± 0.7 µM
[8]; -120 mV holding potential, read-out: IC50, Nav1.2
  IC50: 9.5 ± 1.72 µM
[8]; changed holding potential, read-out: IC50, Nav1.2
  IC50: 0.86 µM
[8]; holding potential -90 mV, 0.1 Hz, read-out: EC50 or IC50, Nav1.2
  IC50: ~7.9 µM and 7.9 µM
[8]; pulse frequency 20 Hz, read-out: IC50, Nav1.2
  IC50: 0.52 µM
[9]
  IC50: 2.2 ± 1.1 µM
[10]
  IC50: 22.3 ± 5.6 µM

Reference: US9675591B2, “Methods for treating seizure disorders and pain” (THE REGENTS OF THE UNIVERSITY OF CALIFORNIA, priority 2013, dated 2017)
